Results as given in article PMC11334571, “EpCAM-targeted betulinic acid analogue nanotherapy improves therapeutic efficacy and induces anti-tumorigenic immune response in colorectal cancer tumor microenvironment” (Journal of Biomedical Science, 2024).

Key:
HT-29 cells = assay: Colony formation assay; assay type: cell-based, human; conditions: HT-29, treated every 3 days for 12–14 days
Method: The colony formation assay, also known as the clonogenic assay, is a cell biology technique used to evaluate the ability of individual cells to undergo unlimited division and form colonies. This assay is commonly employed in cancer research, radiation biology, and drug screening studies to assess cells' proliferative potential and sensitivity to various treatments or conditions. A clonogenic assay was conducted here to evaluate the inhibitory effect of the free drug and nanoencapsulated therapies on the tumor-initiating capacity or colony formation potential of the colorectal cancer cells. About 500 cells were seeded for both the cell lines HT-29 and HCT116 in each well of a 12-well plate, followed by incubation overnight. The cells were treated with 2c, 2cNP, and Apt-2cNP every 3 days for a total of 12–14 days except for the control groups. After completion of drug incubation, the treated medium was withdrawn, and the cells were washed with PBS. 10% acetic acid (in methanol) was used as a fixation buffer, and colonies were stained with crystal violet solution (0.5% crystal violet in 25% methanol) and washed with PBS three times to remove excess dye. […] After imaging, the crystal violet stained colonies were dissolved in 10% acetic acid solution for 15 min under shaking conditions, and the absorbance of the supernatant was detected using a plate reader at 510 nm.

DMH-induced CRC = assay: In vivo antitumor efficacy, Ki67 immunohistochemistry of colon; set-up: species or system Swiss albino mice; dose or concentration left out as unconfirmed; conditions: CRC mice
Method: Sprague–Dawley (SD) rats (body weight = 140–160 g) and Swiss albino mice (body weight = 20–25 g) of either sex (male:female = 1:1) were selected for the chemical-induced colorectal carcinoma model. The study plan was prepared as per the guidelines of the Committee for the Purpose of Control and Supervision of Experiments on Animals (CPCSEA), India (JU-AEC; Registration Number: 1805/GO/Re/S/15/CPCSEA) and was sanctioned by the Animal Ethics Committee (AEC), Jadavpur University, (Protocol approval. no.: AEC/PHARM/1701/3/2018). The animals were procured from the National Institute of Nutrition (Hyderabad, India) and were habituated in housing conditions of 25 °C ± 1 °C temperature, 55% ± 5% relative humidity, and normal day/night photoperiod for at least 2 weeks before conducting any experiment. For the development of CRC-bearing mice, Dimethylhydrazine (DMH) was injected intraperitoneally at a dose of 20 mg/kg body weight once a week for 12 weeks. In contrast, for generating CRC-bearing rats, DMH was administered intraperitoneally at a dose of 25 mg/kg body weight once a week for 9 weeks, as described previously.
Evaluating in vivo antitumor efficacy with histopathological observations is essential to preclinical studies in cancer research and drug development. […] Ki67-positive and -negative cells were counted in microscopic images taken after staining using QuPath-0.3.2 software.

[1] = Pharmacokinetic evaluation; assay type: in vivo; conditions: CRC-bearing mice, intravenous 25 mg/kg, plasma 2c
Method: Pharmacokinetic evaluation informs the time course of drug absorption, distribution, metabolism, and elimination (ADME) within the body. It is a crucial aspect of drug development and is vital in understanding how a drug behaves in vivo. 2c, 2cNP, and Apt-2cNP were injected separately into CRC-bearing mice through intravenous injection (dose: 25 mg/kg). Blood samples were withdrawn at 4 h, 8 h, 10 h, 12 h, 24 h, 48 h, 72 h, and 96 h post-injection, and plasma concentrations of 2c for all samples were determined using LC–MS following a previously described method. A plasma concentration vs time curve was generated using GraphPad Prism (version 5.0). Cmax and Tmax were determined directly from the curve. AUC, AUMC, and AUC0–∞ were calculated using the trapezoidal method. t1/2, MRT, and clearance values were calculated using standard formulas.

CRC cancer tissue = assay: Gene expression by qPCR in CRC tumor tissue; assay type: in vivo, mice; conditions: CRC mouse model
Method: Gene expression analysis by quantitative real-time polymerase chain reaction (qPCR) is widely used in molecular biology and genetics research. qPCR allows the detection and quantification of specific RNA transcripts, providing insights into the expression levels of genes under various conditions or in different cell types or tissues. The expression of several genes related to apoptosis, autophagy, DNA synthesis, and inflammatory pathways were analyzed after treatment with 2c, 2cNP, and Apt-2cNP to understand the molecular mechanism behind their cytotoxic effects and to determine differences between aptamer-conjugated and unconjugated nanoparticles. Total RNA from CRC cancer tissue before and after treatment was isolated after completion of treatment time using TRIzol, following the manufacturer’s protocol. The RNA was checked for quality by measuring the […] ratio and quantified in a NanoDrop instrument. Then, cDNAs were prepared using RevertAid First Strand cDNA synthesis kit (ThermoFisher) followed by amplified using SYBR Green Master Mix (BioRad) in a thermal cycler (Veriti 96-well, Applied Biosystems, Massachusetts, USA). Relative transcript abundance values obtained from the instrument were plotted in bar diagrams. A total of 12 genes (caspase 3, Bcl-2, Bcl-XL, Bax, Atg5, LC3B, Beclin, p62, NF-κB, APC, p53, and TOP2) were analyzed for each sample. Sequences of the primers used (both forward primer and reverse primer) for each gene are in Supplementary Table T2.

[2] = system: CRC tumor microenvironment; assay: Cytokines (ELISA) and immune cells (flow cytometry) in CRC tumor microenvironment; assay type: in vivo; conditions: CRC mice, 24 h and 48 h
Method: Colorectal tissues were isolated from the CRC-bearing mice before and after treatment with 2c, 2cNP, and Apt-2cNP, followed by washing with ice-cold PBS. Colons were then minced into small pieces and agitated with predigestion buffer (HBSS, 10 mM HEPES, 5 mM EDTA, 1 mM DTT, 5% FBS) for 20 min in a 37 °C incubator-shaker. The single cells suspension from the colonic tissues was prepared using a 100 µm cell strainer. The remaining tissue pieces collected from the cell strainer were then cut into finer fragments and treated with digestion solution (HBSS, 10 mM EDTA, 0.5 mg/ml collagenase D, 3 mg/ml dispase II and 5% FBS) in a 37 °C incubator-shaker for 30 min. The dissociated cells from the tissues were collected again through a 100 µm cell strainer. All the single-cell suspensions were pooled together and centrifuged using Percoll gradient. The lymphocytes were suspended in 4 ml of 40% Percoll solution and layered over 12 ml of 80% Percoll solution. Centrifugation was then carried out without a break at 1000 g for 20 min. The T cells were collected from the liquid interphase and resuspended in PBS or RPMI 1640 medium for further experiments.
To analyze cytokine levels (TNFα, IFNγ, and IL-10) and all other ELISA assays, sandwich ELISA kits were used. […] The reading was monitored using a multi-plate reader and then compared with the standard curve for actual measurement of the cytokine level. […]

With `C=C(C)[C@@H]1CC[C@]2(C(=O)O)CC[C@]3(C)[C@H](CC[C@@H]4[C@@]5(C)CC[C@H](OC(=O)Cn6cc(CO)nn6)C(C)(C)[C@@H]5CC[C@]43C)[C@@H]12` [2c, (3S)-3-[2-(4-hydroxymethyl-1H-1,2,3-triazol-1-yl)acetyloxy]-lup-20(29)-en-28-oic acid] the “Inhibition of colony formation” value (HT-29 cells) was “moderate prohibition in colony formation”, the “Ki67-positive cells in colon” value (DMH-induced CRC) was 58.88 ± 1.2% and the “AUC 0-∞” value [1] was 380 ± 44 ng·h/mL. It also gave an AUC last [1] of 376 ± 42 ng·h/mL, an AUMC [1] of 8381 ± 1644 ng.h2/ml and a Clearance [1] of 333 ± 30 mL/h. For the same compound, the Cmax [1] was 23.5 ± 0.55 ng/mL, the MRT [1] was 22.3 ± 1.72 h and the Tmax [1] was 1 min. The Vd [1] was 2.88 ± 0.15 L, the t1/2 [1] was 6 ± 0.5 h and the “Topoisomerase-II RNA level” value (CRC cancer tissue; 24 h and 48 h after treatment) was “time-dependent decrease”. For the same compound, the “RNA expression of anti-apoptotic genes (Bcl-2 and Bcl-XL)” value (CRC cancer tissue; 24 h and 48 h treatment) was “decrease”, the “RNA expression of pro-apoptotic genes (caspase 3 and Bax)” value (CRC cancer tissue; 24 h and 48 h treatment) was “time-dependent increase” and the “RNA expression of autophagy-related genes (Atg5, LC3B, Beclin)” value (CRC cancer tissue; 24 h or 48 h after treatment) was “time-dependent increase”. For the same compound, the p62 expression (CRC cancer tissue; 24 h or 48 h after treatment) was “decrease” and the “Percentages of CD4 and CD8 T cells in TME” value [2] was “did not change”.
